Test system: patients with metastatic, chemo-naive, hormone-refractory prostate cancer (HRPC)
Assay: Phase I safety analysis: adverse events graded by CTCAE version 3.0
Format: in vivo, human
Conditions: for Dyspepsia: patients with drug-related AE / Dysphonia: patients with drug-related AE / Elevated ALT: patients with drug-related AE / Elevated AST: patients with drug-related AE / Elevated GGT: patients with drug-related AE / Elevated alkaline phosphatase: patients with drug-related AE / Epistasis: patients with drug-related AE / Headache: patients with drug-related AE / Hot flush: patients with drug-related AE / Mucosal inflammation: patients with drug-related AE / Muscle spasm: patients with drug-related AE / Nausea: patients with drug-related AE / Neuropathy: patients with drug-related AE / Pyrexia: patients with drug-related AE / Rash: patients with drug-related AE / Upper abdominal pain: patients with drug-related AE / Vomiting: patients with drug-related AE / Weight decrease: patients with drug-related AE / Ageusia: patients with drug-related AE / Alopecia: patients with drug-related AE / Anorexia: patients with drug-related AE / Asthenia: patients with drug-related AE / Constipation: patients with drug-related AE / Diarrhoea: patients with drug-related AE / Dysgeusia: patients with drug-related AE: all courses
Experimental: On days 2–21 (21-day cycle), patients took an oral dose of BIBF 1120 twice daily. Patients were instructed to swallow BIBF 1120 with water at the same time every day to ensure a dose interval of ∼12 h. On day 2 of treatment cycles (TCs) 1 and 2, patients only took the morning dose of BIBF 1120, omitting the evening dose to allow PK evaluation. All patients were premedicated with oral corticosteroids (dexamethasone 8 mg per os or methylprednisolone 32 mg per os, at 12 h and 1 h before docetaxel infusion) and subsequently took 5 mg prednisone oral BID throughout the trial. On day 1 of each TC, patients received an IV infusion of 75 mg m^−2 docetaxel administered over 1 h.
All patients who received at least one dose of BIBF 1120 or docetaxel were assessed during the safety analysis. Intensity of AEs was graded according to Common Terminology Criteria for Adverse Events (CTCAE) version 3.0. Objective response was defined as a PSA decline ⩾50% from the baseline value over two consecutive courses and/or tumour response according to RECIST criteria ([Therasse et al, 2000]).

[1] = 200 mg BID (n=3) + docetaxel/prednisone, all grades
[2] = 250 mg BID (n=12) + docetaxel/prednisone, Gr 3/4
[3] = 250 mg BID (n=12) + docetaxel/prednisone, all grades
[4] = Total, all dose levels (n=21) + docetaxel/prednisone, Gr 3/4
[5] = Total, all dose levels (n=21) + docetaxel/prednisone, all grades
[6] = during TC 1, all dose levels 100–250 mg BID + docetaxel/prednisone
[7] = during TC 1, all dose levels + docetaxel/prednisone

Compound: COC(=O)c1ccc2c(c1)NC(=O)/C2=C(\Nc1ccc(N(C)C(=O)CN2CCN(C)CC2)cc1)c1ccccc1 [BIBF 1120]
- Dyspepsia: patients with drug-related AE [1]: 0
- Dysphonia: patients with drug-related AE [1]: 2
- Elevated ALT: patients with drug-related AE [1]: 0
- Elevated AST: patients with drug-related AE [1]: 0
- Elevated GGT: patients with drug-related AE [1]: 0
- Elevated alkaline phosphatase: patients with drug-related AE [1]: 0
- Epistasis: patients with drug-related AE [1]: 1
- Headache: patients with drug-related AE [1]: 0
- Hot flush: patients with drug-related AE [1]: 1
- Mucosal inflammation: patients with drug-related AE [1]: 0
- Muscle spasm: patients with drug-related AE [1]: 0
- Nausea: patients with drug-related AE [1]: 2
- Neuropathy: patients with drug-related AE [1]: 0
- Pyrexia: patients with drug-related AE [1]: 0
- Rash: patients with drug-related AE [1]: 0
- Upper abdominal pain: patients with drug-related AE [1]: 0
- Vomiting: patients with drug-related AE [1]: 2
- Weight decrease: patients with drug-related AE [1]: 0
- Patients with grade 3 diarrhoea (200 mg BID + docetaxel/prednisone, TC 1): One
- Ageusia: patients with drug-related AE [2]: 0
- Alopecia: patients with drug-related AE [2]: 0
- Anorexia: patients with drug-related AE [2]: 0
- Asthenia: patients with drug-related AE [2]: 0
- Constipation: patients with drug-related AE [2]: 0
- Diarrhoea: patients with drug-related AE [2]: 0
- Dysgeusia: patients with drug-related AE [2]: 0
- Dyspepsia: patients with drug-related AE [2]: 0
- Dysphonia: patients with drug-related AE [2]: 0
- Elevated ALT: patients with drug-related AE [2]: 2
- Elevated AST: patients with drug-related AE [2]: 2
- Elevated GGT: patients with drug-related AE [2]: 2
- Elevated alkaline phosphatase: patients with drug-related AE [2]: 0
- Epistasis: patients with drug-related AE [2]: 0
- Headache: patients with drug-related AE [2]: 0
- Hot flush: patients with drug-related AE [2]: 0
- Mucosal inflammation: patients with drug-related AE [2]: 0
- Muscle spasm: patients with drug-related AE [2]: 0
- Nausea: patients with drug-related AE [2]: 0
- Neuropathy: patients with drug-related AE [2]: 0
- Pyrexia: patients with drug-related AE [2]: 0
- Rash: patients with drug-related AE [2]: 0
- Upper abdominal pain: patients with drug-related AE [2]: 0
- Vomiting: patients with drug-related AE [2]: 0
- Weight decrease: patients with drug-related AE [2]: 0
- Ageusia: patients with drug-related AE [3]: 1
- Alopecia: patients with drug-related AE [3]: 4
- Anorexia: patients with drug-related AE [3]: 3
- Asthenia: patients with drug-related AE [3]: 10
- Constipation: patients with drug-related AE [3]: 2
- Diarrhoea: patients with drug-related AE [3]: 8
- Dysgeusia: patients with drug-related AE [3]: 2
- Dyspepsia: patients with drug-related AE [3]: 1
- Dysphonia: patients with drug-related AE [3]: 1
- Elevated ALT: patients with drug-related AE [3]: 4
- Elevated AST: patients with drug-related AE [3]: 3
- Elevated GGT: patients with drug-related AE [3]: 3
- Elevated alkaline phosphatase: patients with drug-related AE [3]: 2
- Epistasis: patients with drug-related AE [3]: 3
- Headache: patients with drug-related AE [3]: 0
- Hot flush: patients with drug-related AE [3]: 1
- Mucosal inflammation: patients with drug-related AE [3]: 2
- Muscle spasm: patients with drug-related AE [3]: 2
- Nausea: patients with drug-related AE [3]: 5
- Neuropathy: patients with drug-related AE [3]: 1
- Pyrexia: patients with drug-related AE [3]: 1
- Rash: patients with drug-related AE [3]: 2
- Upper abdominal pain: patients with drug-related AE [3]: 3
- Vomiting: patients with drug-related AE [3]: 3
- Weight decrease: patients with drug-related AE [3]: 1
- Patients with CTCAE grade 3/4 liver enzyme (transaminase) elevations, of twelve (250 mg BID, any TC, based on laboratory values): six
- Patients with CTCAE grade 3/4 increases in hepatic enzymes (250 mg BID, entire treatment period): 50%
- Ageusia: patients with drug-related AE [4]: 0
- Alopecia: patients with drug-related AE [4]: 0
- Anorexia: patients with drug-related AE [4]: 0
- Asthenia: patients with drug-related AE [4]: 0
- Constipation: patients with drug-related AE [4]: 0
- Diarrhoea: patients with drug-related AE [4]: 2
- Dysgeusia: patients with drug-related AE [4]: 0
- Dyspepsia: patients with drug-related AE [4]: 0
- Dysphonia: patients with drug-related AE [4]: 0
- Elevated ALT: patients with drug-related AE [4]: 2
- Elevated AST: patients with drug-related AE [4]: 2
- Elevated GGT: patients with drug-related AE [4]: 2
- Elevated alkaline phosphatase: patients with drug-related AE [4]: 0
- Epistasis: patients with drug-related AE [4]: 0
- Headache: patients with drug-related AE [4]: 0
- Hot flush: patients with drug-related AE [4]: 0
- Mucosal inflammation: patients with drug-related AE [4]: 0
- Muscle spasm: patients with drug-related AE [4]: 0
- Nausea: patients with drug-related AE [4]: 0
- Neuropathy: patients with drug-related AE [4]: 0
- Pyrexia: patients with drug-related AE [4]: 0
- Rash: patients with drug-related AE [4]: 0
- Upper abdominal pain: patients with drug-related AE [4]: 0
- Vomiting: patients with drug-related AE [4]: 0
- Weight decrease: patients with drug-related AE [4]: 0
- Ageusia: patients with drug-related AE [5]: 2
- Alopecia: patients with drug-related AE [5]: 4
- Anorexia: patients with drug-related AE [5]: 6
- Asthenia: patients with drug-related AE [5]: 14
- Constipation: patients with drug-related AE [5]: 3
- Diarrhoea: patients with drug-related AE [5]: 13
- Dysgeusia: patients with drug-related AE [5]: 3
- Dyspepsia: patients with drug-related AE [5]: 2
- Dysphonia: patients with drug-related AE [5]: 4
- Elevated ALT: patients with drug-related AE [5]: 4
- Elevated AST: patients with drug-related AE [5]: 3
- Elevated GGT: patients with drug-related AE [5]: 3
- Elevated alkaline phosphatase: patients with drug-related AE [5]: 2
- Epistasis: patients with drug-related AE [5]: 5
- Headache: patients with drug-related AE [5]: 2
- Hot flush: patients with drug-related AE [5]: 2
- Mucosal inflammation: patients with drug-related AE [5]: 2
- Muscle spasm: patients with drug-related AE [5]: 2
- Nausea: patients with drug-related AE [5]: 9
- Neuropathy: patients with drug-related AE [5]: 2
- Pyrexia: patients with drug-related AE [5]: 2
- Rash: patients with drug-related AE [5]: 2
- Upper abdominal pain: patients with drug-related AE [5]: 4
- Vomiting: patients with drug-related AE [5]: 5
- Weight decrease: patients with drug-related AE [5]: 2
- Alopecia, frequency of AE irrespective of relatedness (all TCs and doses): 23.8%
- Asthenia, frequency of AE irrespective of relatedness (all TCs and doses): 95.2%
- Diarrhoea, frequency of AE irrespective of relatedness (all TCs and doses): 85.7%
- Nausea, frequency of AE irrespective of relatedness (all TCs and doses): 28.6%
- Alopecia, frequency of drug-related AE [6]: 23.8%
- Asthenia, frequency of drug-related AE [6]: 61.9%
- Nausea, frequency of drug-related AE [6]: 28.6%
- Vomiting, frequency of drug-related AE [6]: 28.6%
- Patients with AE severity grade 1 [7]: 28.6%
- Patients with AE severity grade 2 [7]: 28.6%
- Patients with AE severity grade 3 [7]: 23.8%
- Patients with AE severity grade 4 (neutropenia only, considered related to docetaxel) [7]: 14.3%
